Experimental data taken from patent US11008290B2, “Halogenated quinoline derivatives as antimicrobial agents” (University of Florida Research Foundation, Incorporated, priority 2015, dated 2021).
≈ marks a conversion by molar mass, not a printed value. Where two headings read alike, the source gives them in different places. Values belong to the molecule of their own block, whether it stands above or below them.

Columns and labels:
[1] = test system: methicillin-resistant Staphylococcus aureus-2 (MRSA-2; clinical isolate); test: Minimum inhibitory concentration (MIC) susceptibility assay, broth microdilution; assay type: cell-based
Method: (§1) The minimum inhibitory concentration (MIC) for each compound was determined by the broth microdilution method as recommended by the Clinical and Laboratory Standards Institute (CLSI). In a 96-well plate, eleven two-fold serial dilutions of each compound were made in a final volume of 100 μL Luria Broth. Each well was inoculated with ˜10^5 bacterial cells at the initial time of incubation, prepared from a fresh log phase culture (OD600 of 0.5 to 1.0 depending on bacterial strain). […] The concentration range tested for each compound during this study was 0.10 to 100 μM. DMSO served as the vehicle and negative control in each microdilution MIC assay. DMSO was serially diluted with a top concentration of 1% v/v. Bacterial strains used: methicillin-resistant Staphylococcus aureus-2 (MRSA-2; clinical isolate from Shands Hospital in Gainesville, Fla.), methicillin-resistant Staphylococcus epidermidis (MRSE; ATCC 35984), vancomycin-resistant Enterococcus faecium (VRE, ATCC 700221).

[2] = test system: methicillin-resistant Staphylococcus epidermidis (MRSE; ATCC 35984); test: as above; assay type: cell-based; settings: read-out: MRSE MIC
Method: as §1

[3] = test system: vancomycin-resistant Enterococcus faecium (VRE, ATCC 700221); test: as above; assay type: cell-based; settings: read-out: VRE MIC
Method: as §1

[4] = test system: MRSA-2 planktonic cells and biofilms; test: Calgary Biofilm Device (CBD) MBC/MBEC determination; assay type: cell-based, Staphylococcus aureus; settings: for MBC: Staphylococcus aureus, MRSA
Method: (§2) Biofilm eradication experiments were performed using the Calgary Biofilm Device to determine MBC/MBEC values for various compounds of interest (Innovotech, product code: 19111). The Calgary device (96-well plate with lid containing 96 total pegs to establish biofilms; 1 peg/well) was inoculated with 125 μL of a mid-log phase culture diluted 1,000-fold in tryptic soy broth with 0.5% glucose (TSBG) to establish bacterial biofilms after incubation at 37° C. for 24 hours. The lid of the Calgary device was then removed, washed and transferred to another 96-well plate containing 2-fold serial dilutions of the test compounds (the “challenge plate”). The total volume of media with compound in each well in the challenge plate was 150 μL. The Calgary device was then incubated at 37° C. for 24 hours. The lid was then removed from the challenge plate and MBC/MBEC values were determined using different final assays. […] The MBC values were determined as the concentration giving a lack of visible bacterial growth (e.g., turbidity). For determination of MBEC values, the Calgary device lid (with attached pegs/treated biofilms) was transferred to a new 96-well plate containing 150 μL of fresh TSBG media in each well and incubated for 24 hours at 37° C. to allow viable biofilms to grow and disperse resulting in turbidity after the incubation period. […] In select experiments, treated pegs from the Calgary device were removed from lead biofilm eradicators after final incubation, sonicated for 30 minutes in PBS and plated out to determine biofilm cell killing (e.g., colony forming unit per milliliter, CFU/mL).

[5] = test system: MRSE (ATCC 35984) planktonic cells and biofilms; test: as above; assay type: cell-based, Staphylococcus epidermidis; settings: for MBC: Staphylococcus epidermidis, planktonic killing, CBD, first value of cell
Method: as §2

[6] = test system: VRE (ATCC 700221) planktonic cells and biofilms; test: as above; assay type: cell-based, Enterococcus faecium; settings: Enterococcus
Method: as §2

human red blood cells = test: Hemolysis assay; assay type: cell-based
Method: Freshly drawn human red blood cells (hRBC with ethylenediaminetetraacetic acid (EDTA) as an anticoagulant) were washed with Tris-buffered saline (0.01M Tris-base, 0.155M sodium chloride (NaCl), pH 7.2) and centrifuged for 5 minutes at 3500 rpm. The washing was repeated three times with the buffer. In 96-well plate, the test compounds were added to the buffer. […] The plate was then incubated for 1 hour at 37° C. After incubation, the plate is centrifuged for 5 minutes at 3500 rpm. Then 80 μL of the supernatant were transferred to another 96-well plate and the Optical Density (OD) was read at 405 nm. […] The percent of hemolysis was calculated as (OD405 of the compound-OD405 DMSO)/(OD405 Triton X-OD405 buffer).

MRSA-2 = test: Mechanistic investigations with metal(II)-cations (MIC assay with 200 μM metal salt); assay type: cell-based, Staphylococcus aureus; settings: for Fold Δ (MIC w/Cu^2+) / Fold Δ (MIC w/Fe^2+) / Fold Δ (MIC w/Zn^2+): change in antibacterial activity according to MIC values; for MIC: Staphylococcus aureus
Method: as §1

[7] = Staphylococcus, MRSA, Table 3, at least three independent experiments, read-out: MRSA-2 MIC
[8] = Staphylococcus epidermidis, Table 3
[9] = Table 3, planktonic killing, CBD, first value of MBC/MBEC cell, read-out: MRSA-2 MBC
[10] = Table 3, planktonic killing, CBD, first value of cell, footnote c = lowest concentration tested, read-out: VRE MBC
[11] = Staphylococcus, MRSA, read-out: MIC
[12] = MRSA-2, 200 μM ammonium iron (II) sulfate hexahydrate, read-out: MIC w/Fe^2+
[13] = MRSA-2, 200 μM copper (II) sulfate, read-out: MIC w/Cu^2+
[14] = MRSA-2, 200 μM zinc (II) chloride, read-out: MIC w/Zn^2+
[15] = Staphylococcus, MRSA, Table 2, 2 to 6 independent experiments, read-out: MRSA-2 MIC
[16] = Staphylococcus epidermidis, Table 2, ATCC 35984
[17] = Table 2, planktonic killing, CBD, first value of MBC/MBEC cell, read-out: MRSA-2 Clinical Isolate MBC
[18] = Table 2, read-out: MRSE ATCC 35984 MBC
[19] = Staphylococcus epidermidis, 18 h, Table 2, ATCC 35984
[20] = Table 2, planktonic killing, CBD, first value of cell, read-out: VRE ATCC 700221 MBC

MIC [1, 7]: 0.78 µM (≈ 0.258 µg/mL) | MIC [2, 8]: 0.39 µM (≈ 0.129 µg/mL) | MIC ([3]; Table 3): 0.78 µM (≈ 0.258 µg/mL)
Structure (SMILES): CCc1ccc2c(Br)cc(Br)c(O)c2n1 [A-HQ-1]
MBC [4, 9]: 93.8 µM (≈ 31 µg/mL) | MBC ([5]; Table 3, read-out: MRSE MBC): 31.3 µM (≈ 10.4 µg/mL) | MBC [6, 10]: 1.5 µM (≈ 0.497 µg/mL) | % Haemolysis at 200 μM (human red blood cells; human, 1 h, pH 7.2): ≤1%

MIC [1, 7]: 1.56 µM (≈ 0.685 µg/mL) | MIC [1, 11]: 1.56 µM (≈ 0.685 µg/mL) | MIC [2, 8]: 1.17 µM (≈ 0.514 µg/mL) | MIC ([3]; Table 3): 0.39 µM (≈ 0.171 µg/mL) | Fold Δ (MIC w/Cu^2+) (MRSA-2; MRSA-2): +8 fold | Fold Δ (MIC w/Fe^2+) (MRSA-2; MRSA-2): +64 fold | Fold Δ (MIC w/Zn^2+) (MRSA-2; MRSA-2): −8 fold | MIC (MRSA-2; [12]): > 100 µM | MIC (MRSA-2; [13]): 12.5 µM | MIC (MRSA-2; [14]): 0.2 µM
Structure (SMILES): CCCc1ccc2c(I)cc(I)c(O)c2n1 [A-HQ-4]
MBC [4, 9]: 188 µM (≈ 82.5 µg/mL) | MBC ([5]; Table 3, read-out: MRSE MBC): 125 µM (≈ 54.9 µg/mL) | MBC [6, 10]: 7.8 µM (≈ 3.42 µg/mL) | % Haemolysis at 200 μM (human red blood cells; human, 1 h, pH 7.2): ≤1%

MIC [1, 7]: 9.38 µM (≈ 4.56 µg/mL) | MIC [1, 11]: 9.38 µM (≈ 4.56 µg/mL) | MIC [2, 8]: 1.17 µM (≈ 0.569 µg/mL) | MIC ([3]; Table 3): 2.35 µM (≈ 1.14 µg/mL) | Fold Δ (MIC w/Cu^2+) (MRSA-2; MRSA-2): +11 fold | Fold Δ (MIC w/Fe^2+) (MRSA-2; MRSA-2): +11 fold | Fold Δ (MIC w/Zn^2+) (MRSA-2; MRSA-2): −8 fold | MIC (MRSA-2; [12]): > 100 µM | MIC (MRSA-2; [13]): > 100 µM | MIC (MRSA-2; [14]): 1.17 µM
Structure (SMILES): Oc1c(Br)cc(Br)c2ccc(CCc3ccc(Br)cc3)nc12 [A-HQ-7]
MBC [4, 9]: 375 µM (≈ 182 µg/mL) | MBC ([5]; Table 3, read-out: MRSE MBC): 250 µM (≈ 122 µg/mL) | MBC [6, 10]: 9.38 µM (≈ 4.56 µg/mL) | % Haemolysis at 200 μM (human red blood cells; human, 1 h, pH 7.2): ≤1%

Structure (SMILES): N#CC(C#N)=NNc1cccc(Cl)c1 [CCCP, carbonyl cyanide m-chlorophenyl hydrazone, reference compound]
MIC [1, 15]: 3.13 µM (≈ 0.64 µg/mL) | MIC ([1]; Table 3, at least three independent experiments, read-out: MRSA-2 MIC): 3.13 µM (≈ 0.64 µg/mL) | MIC [2, 16]: 6.25 µM (≈ 1.28 µg/mL) | MIC ([2]; Table 3): 6.25 µM (≈ 1.28 µg/mL) | MBC [4, 17]: 31.3 µM (≈ 6.4 µg/mL) | MBC [4, 9]: 31.3 µM (≈ 6.4 µg/mL) | MBC [5, 18]: 31.3 µM (≈ 6.4 µg/mL) | MBC ([5]; Table 3, read-out: MRSE MBC): 31.3 µM (≈ 6.4 µg/mL) | % Haemolysis at 200 μM (human red blood cells; Table 2, human red blood cells, 1 hour at 37° C.): 3.5% | % Haemolysis at 200 μM (human red blood cells; Table 3, human red blood cells): 3.5%

Structure (SMILES): O=C(O)CN(CCN(CC(=O)O)CC(=O)O)CC(=O)O [EDTA, ethylenediaminetetraacetic acid, reference compound]
MBC [4, 9]: 2000 µM (≈ 584 µg/mL) | MBC ([5]; Table 3, read-out: MRSE MBC): 1000 µM (≈ 292 µg/mL) | % Haemolysis at 200 μM (human red blood cells; Table 3, human red blood cells): 3.0%

Structure (SMILES): CCCCNCc1ccc2c(Br)cc(Br)c(O)c2n1 [HQ-2]
MIC ([1]; Staphylococcus, MRSA): 3.13 µM (≈ 1.21 µg/mL) | MIC ([1]; Staphylococcus, MRSA, read-out: MRSA-2 MIC): 6.25 µM (≈ 2.43 µg/mL) | MIC ([2]; Staphylococcus epidermidis): 3.13 µM (≈ 1.21 µg/mL) | MIC [3]: 3.13 µM (≈ 1.21 µg/mL) | MIC (MRSA-2; MRSA, read-out: MIC w/Cu^2+): 3.13 µM | MIC (MRSA-2; MRSA, read-out: MIC w/Fe^2+): 3.13 µM | MIC (MRSA-2; MRSA, read-out: MIC w/Zn^2+): 1.17 µM | MBC ([4]; read-out: MRSA-2 Clinical Isolate MBC): 46.9 µM (≈ 18.2 µg/mL) | MBC ([6]; read-out: VRE ATCC 700221 MBC): 15.6 µM (≈ 6.05 µg/mL)

MIC [1, 15]: 1.17 µM (≈ 0.518 µg/mL) | MIC [2, 19]: 0.15 to 0.3 µM (≈ 0.0664 to 0.133 µg/mL) | MIC [2, 16]: 0.3 µM (≈ 0.133 µg/mL) | MIC ([3]; 18 h, Table 2, ATCC 700221): 0.39 to 0.78 µM (≈ 0.173 to 0.345 µg/mL) | MIC ([3]; Table 2, ATCC 700221): 0.78 µM (≈ 0.345 µg/mL)
Structure (SMILES): Oc1c(Br)cc(Br)c2ccc(CNc3cccc(Cl)c3)nc12 [HQ-4]
MBC [4, 17]: 62.5 µM (≈ 27.7 µg/mL) | MRSA-2 MBEC ([4]; Table 3, biofilm eradication, CBD, second value of MBC/MBEC cell): equipotent biofilm eradication activities | MBEC:MBC ratio ([5]; MRSE 35984, CBD): ~1 | MBC [5, 18]: 9.38 µM (≈ 4.15 µg/mL) | MBC [6, 20]: 1.5 µM (≈ 0.664 µg/mL)

MIC [1, 15]: 1.56 µM (≈ 0.744 µg/mL) | MIC [2, 19]: 0.15 to 0.3 µM (≈ 0.0715 to 0.143 µg/mL) | MIC [2, 16]: 0.3 µM (≈ 0.143 µg/mL) | MIC ([3]; 18 h, Table 2, ATCC 700221): 0.39 to 0.78 µM (≈ 0.186 to 0.372 µg/mL) | MIC ([3]; Table 2, ATCC 700221): 0.39 µM (≈ 0.186 µg/mL)
Structure (SMILES): Oc1c(Br)cc(Br)c2ccc(CNc3cc(Cl)cc(Cl)c3)nc12 [HQ-5]
MBC [4, 17]: 62.5 µM (≈ 29.8 µg/mL) | MBC [5, 18]: 1.5 µM (≈ 0.715 µg/mL) | MBC [6, 20]: 2 µM (≈ 0.954 µg/mL)
